This is an account of results in patent US4355040A, “Hypotensive imidazole-5-acetic acid derivatives” (Takeda Chemical Industries, Ltd., priority 1979, dated 1982).

Where a name gives a salt, the structure may show the parent alone.

The first experiment relates to angiotensin II (aortic blood vessel of rabbits). The experiment is described as follows: Antagonistic effect on angiotensin II (A II)-induced tension, aortic blood vessel of rabbits. It counts as cell-based. The note with it: Oryctolagus cuniculus, 0.25 h.
From the text: Antagonistic effect of the compound (I) of the present invention on angiotensin II (hereinafter referred to briefly as "A II") (with aortic blood vessel of rabbits)
The blood-vessel preparation and reaction were done in accordance with the method as described in "European Journal of Pharmacology", 18, 316 (1972). […] [formula] where; T1 =Change in isometric tension of the blood vessel brought about by A II without a test drug substance (g)
For `CN(C)c1c([N+](=O)[O-])cc(-c2nc(Cl)c(CC(=O)O)n2Cc2ccccc2)cc1[N+](=O)[O-]`, the inhibition (in general, the change of the read-out against control, counted positive when it falls) at 10 µM was 86%. Turning to `O=C(O)Cc1c(Cl)nc(-c2cc([N+](=O)[O-])c(Cl)c([N+](=O)[O-])c2)n1Cc1ccccc1` [drawing 108], the inhibition at 1 µM worked out at 82%.

Still in this experiment, the particulars now being: Oryctolagus cuniculus, 0.25 h; 10^-5 M drug substance; A II 4×10^-9 M; 15 minutes; read-out: Inhibition.
Take `Cc1ccccc1Cn1c(-c2ccccc2)nc(Cl)c1CC(=O)O`: the inhibition at 10 µM worked out at 58%.

On to `CCCCNc1ccc(-c2nc(Cl)c(CC(=O)O)n2Cc2ccccc2)cc1`, for which the inhibition at 10 µM stood at 63%. On the same count and under the same terms, as for `O=C(O)Cc1c(Cl)nc(-c2ccccc2[N+](=O)[O-])n1Cc1ccccc1`, the figure is 35%. Still for that read-out and setting: as for `Nc1ccccc1-c1nc(Cl)c(CC(=O)O)n1Cc1ccccc1`, the figure is 30%; as for `O=C(O)Cc1c(Cl)nc(-c2cccc(O)c2)n1Cc1ccccc1`, 18%. Still for that read-out and setting: as for `O=C(O)Cc1c(Cl)nc(-c2ccc3c(c2)OCO3)n1Cc1ccccc1`, the figure is 51%; as for `CN(C)c1ccc(-c2nc(Cl)c(CC(=O)O)n2Cc2ccccc2)cc1[N+](=O)[O-]`, 73%; as for `O=C(O)Cc1c(Cl)nc(-c2ccccc2O)n1Cc1ccccc1`, 55%. In the case of `COc1ccc(Cn2c(-c3ccccc3)nc(Cl)c2CC(=O)O)cc1`, the inhibition at 10 µM amounted to 61%. On the same count and under the same terms, the value for `O=C(O)Cc1c(Cl)nc(-c2ccccc2)n1Cc1ccc(Cl)cc1Cl` [1-(2,4-dichlorobenzyl)-4-chloro-2-phenylimidazole-5-acetic acid hydrochloride] was 30%. On the same count and under the same terms, the value for `O=C(O)Cc1c(Cl)nc(-c2ccccc2)n1Cc1ccc(OCc2ccccc2)cc1` [1-(4-benzyloxybenzyl)-4-chloro-2-phenylimidazole-5-acetic acid] was 19%; that for `O=C(O)Cc1c(Cl)nc(-c2ccccc2)n1Cc1ccc(Cl)cc1` [1-(4-chlorobenzyl)-4-chloro-2-phenylimidazole-5-acetic acid] was 25%; that for `COc1cccc(Cn2c(-c3ccccc3)nc(Cl)c2CC(=O)O)c1` [4-chloro-1-(3-methoxybenzyl)-2-phenylimidazole-5-acetic acid] was 73%. Same read-out and setting: as for `Cc1ccc(Cn2c(-c3ccccc3)nc(Cl)c2CC(=O)O)cc1` [4-chloro-1-(4-methylbenzyl)-2-phenylimidazole-5-acetic acid], the figure is 80%; as for `Cc1nc(Cl)c(CC(=O)O)n1Cc1ccccc1` [CH3 / H / H / H], 38%. As to `O=C(O)Cc1c(Cl)nc(-c2ccccc2)n1Cc1ccccc1Cl` [drawing 92], the inhibition at 10 µM is 90%.

With `Nc1ccc(-c2nc(Cl)c(CC(=O)O)n2Cc2ccccc2)cc1` [drawing 101], the inhibition at 10 µM came to 50%. On the same count and under the same terms, the value for `O=C(O)Cc1c(Cl)nc(-c2ccc(O)cc2)n1Cc1ccccc1` [drawing 103] was 32%.

The experiment is the same for the next values; noted with them: Oryctolagus cuniculus, 0.25 h; 10^-6 M drug substance; A II 4×10^-9 M; 15 minutes; read-out: Inhibition.
Regarding `O=C(O)Cc1c(Cl)nc(-c2ccccc2)n1Cc1c(Cl)cccc1Cl`, the inhibition at 1 µM was determined as 34%. With `O=C(O)Cc1c(Cl)nc(-c2ccccc2)n1Cc1c(F)cccc1Cl`, the inhibition at 1 µM came out at 64%. On the same count and under the same terms, the value for `O=C(O)Cc1c(Cl)nc(-c2ccccc2)n1Cc1ccccc1Br` was 60%; that for `CCN(CC)c1ccc(-c2nc(Cl)c(CC(=O)O)n2Cc2ccccc2)cc1Cl` was 25%.

Take `CN(C)c1ccc(-c2nc(Cl)c(CC(=O)O)n2Cc2ccccc2)cc1Cl`: the inhibition at 1 µM was determined as 33%. Turning to `CN(C)c1ccc(-c2nc(Cl)c(CC(=O)O)n2Cc2ccccc2)cc1Br`, the inhibition at 1 µM was 18%. Regarding `O=C(O)Cc1c(Cl)nc(-c2ccc(O)c(O)c2)n1Cc1ccccc1`, the inhibition at 1 µM was found to be 34%. For `COc1cccc(-c2nc(Cl)c(CC(=O)O)n2Cc2ccccc2Cl)c1`, the inhibition at 1 µM stood at 23%.

Regarding `COc1cc(-c2nc(Cl)c(CC(=O)O)n2Cc2ccccc2)ccc1O`, the inhibition at 1 µM turned out to be 16%.

Take `COc1ccccc1Cn1c(-c2ccccc2)nc(Cl)c1CC(=O)O`: the inhibition at 1 µM was 42%. Same read-out and setting: the value for `CCOc1ccc(Cn2c(-c3ccccc3)nc(Cl)c2CC(=O)O)cc1` was 43%; that for `CCOc1ccccc1Cn1c(-c2ccccc2)nc(Cl)c1CC(=O)O` was 41%.

For `COc1ccc(Cn2c(-c3ccccc3)nc(Cl)c2CC(=O)O)cc1OC`, the inhibition at 1 µM was found to be 38%.

As to `CCOc1ccc(Cn2c(-c3ccccc3)nc(Cl)c2CC(=O)O)cc1C`, the inhibition at 1 µM came to 81%. On the same count and under the same terms, as for `COc1ccc(-c2nc(Cl)c(CC(=O)O)n2Cc2ccccc2)cc1OC`, the figure is 18%. The same measure, in the same setting: the value for `COc1ccc(-c2nc(Cl)c(CC(=O)O)n2Cc2ccccc2)cc1C` was 32%; that for `COc1ccc(Cn2c(-c3ccc(OC)c(C)c3)nc(Cl)c2CC(=O)O)cc1C` was 54%. Still for that read-out and setting: as for `COc1cc(-c2nc(Cl)c(CC(=O)O)n2Cc2ccccc2)ccc1OCc1ccccc1`, the figure is 18%; as for `O=C(O)Cc1c(Cl)nc(C2CCCC2)n1Cc1ccccc1`, 34%.

`O=C(O)Cc1c(Cl)nc(C2CCCCC2)n1Cc1ccccc1`: the inhibition at 1 µM worked out at 18%. Consider `O=C(O)Cc1c(Cl)nc(-c2ccccc2)n1Cc1cc([N+](=O)[O-])ccc1Cl` [1-(2-chloro-5-nitrobenzyl)-4-chloro-2-phenylimidazole-5-acetic acid], for which the inhibition at 1 µM is 34%.

Consider `O=C(O)Cc1c(Cl)nc(-c2ccccc2)n1Cc1ccccc1F` [4-chloro-1-(2-fluorobenzyl)-2-phenylimidazole-5-acetic acid], for which the inhibition at 1 µM was determined as 23%. Still for that read-out and setting: as for `CCc1nc(Cl)c(CC(=O)O)n1Cc1ccccc1` [C2 H5 / H / H / H], the figure is 36%; as for `CCCCOc1ccc(Cn2c(-c3ccccc3)nc(Cl)c2CC(=O)O)cc1` [drawing 121], 56%; as for `COc1ccc(Cn2c(-c3ccccc3)nc(Cl)c2CC(=O)O)cc1C` [drawing 124, 4-chloro-1-(3-methyl-4-methoxybenzyl)-2-phenylimidazole-5-acetic acid], 80%. Same read-out and setting: the value for `CC(C)c1nc(Cl)c(CC(=O)O)n1Cc1ccccc1` [i-C3 H7 / H / H / H] was 41%. Still for that read-out and setting: as for `CCCc1nc(Cl)c(CC(=O)O)n1Cc1ccccc1` [n-C3 H7 / H / H / H], the figure is 22%; as for `CCCCc1nc(Cl)c(CC(=O)O)n1Cc1ccccc1OCC` [n-C4 H9 / 2-C2 H5 O / H / H, 2-Butyl-4-chloro-1-(2-ethoxybenzyl)imidazole-5-acetic acid], 53%. `CCCCc1nc(Cl)c(CC(=O)O)n1Cc1ccc(OC)c(C)c1` [n-C4 H9 / 3-CH3 / 4-CH3 O / H]: the inhibition at 1 µM came to 99%. On to `CCCCOc1ccc(Cn2c(CCCC)nc(Cl)c2CC(=O)O)cc1` [n-C4 H9 / 4-n-C4 H9 O / H / H], for which the inhibition at 1 µM is 85%. The same measure, in the same setting: the value for `CCCCCCc1nc(Cl)c(CC(=O)O)n1Cc1ccc(OC)c(C)c1` [n-C6 H13 / 3-CH3 / 4-CH3 O / H] was 100%.

Regarding `CCCCCCc1nc(Cl)c(CC(=O)O)n1Cc1ccc(OCCCC)cc1` [n-C6 H13 / 4-n-C4 H9 O / H / H], the inhibition at 1 µM is 100%. `CCCCCc1nc(Cl)c(CC(=O)O)n1Cc1ccccc1` [n-C 5 H11 / H / H / H]: the inhibition at 1 µM was 65%.

For `CC(C)(C)c1nc(Cl)c(CC(=O)O)n1Cc1ccccc1` [t-C4 H9 / H / H / H], the inhibition at 1 µM turned out to be 10%.

Still in this experiment, the particulars now being: Oryctolagus cuniculus, 0.25 h; 10^-7 M drug substance; A II 4×10^-9 M; 15 minutes.
`CCCCCc1nc(Cl)c(CC(=O)O)n1Cc1ccccc1Cl` [n-C5 H11 / 2-Cl / H / H] came in with an inhibition at 0.1 µM of 57%. Still for that read-out and setting: as for `CCCCCCc1nc(Cl)c(CC(=O)O)n1Cc1ccccc1Cl` [n-C6 H13 / 2-Cl / H / H], the figure is 84%.

The experiment is the same for the next values; noted with them: Oryctolagus cuniculus, 0.25 h; 10^-8 M drug substance; A II 4×10^-9 M; 15 minutes.
Regarding `CCCCc1nc(Cl)c(CC(=O)O)n1Cc1ccccc1[N+](=O)[O-]` [n-C4 H9 / 2-NO2 / H / H], the inhibition at 0.01 µM is 30%.

The subject of the next experiment is angiotensin II-induced elevation of blood pressure. The experiment is described as follows: Inhibitory activity against angiotensin II-induced elevation of blood pressure in rats. The experiment is classed as in vivo, Male SD rats. The conditions noted are these: Rattus norvegicus, iv, 10 min; 0.3 mg/kg intravenously; A II 20 ng/kg/min; 10 min; read-out: Inhibition (%), after 10 min.
For `O=C(O)Cc1c(Cl)nc(-c2ccc(O)cc2)n1Cc1ccccc1` [drawing 132], the inhibition in vivo at 0.3 mg/kg amounted to 10.7 ± 1.8%.

Staying with this experiment, now noted: Rattus norvegicus, iv, 10 min; 0.5 mg/kg intravenously; A II 20 ng/kg/min; 10 min; read-out: Inhibition (%), after 10 min.
As for `O=C(O)Cc1c(Cl)nc(-c2ccc(O)cc2)n1Cc1ccccc1` [drawing 132], the inhibition in vivo at 0.5 mg/kg came out at 14.8 ± 1.8%.

For the molecule `Nc1ccc(-c2nc(Cl)c(CC(=O)O)n2Cc2ccccc2)cc1` [drawing 133], the inhibition in vivo at 0.5 mg/kg was 17.7 ± 1.2%.

The same experiment, now with this note: Rattus norvegicus, iv, 10 min; 1.0 mg/kg intravenously; A II 20 ng/kg/min; 10 min; read-out: Inhibition (%), after 10 min.
Take `O=C(O)Cc1c(Cl)nc(-c2ccccc2)n1Cc1ccccc1Cl` [drawing 134]: the inhibition in vivo at 1 mg/kg turned out to be 11.8 ± 1.8%.

The same experiment, now with this note: Rattus norvegicus, iv, 0.5 h; 0.3 mg/kg intravenously; A II 20 ng/kg/min; 30 min; read-out: Inhibition (%), after 30 min.
Regarding `O=C(O)Cc1c(Cl)nc(-c2ccc(O)cc2)n1Cc1ccccc1` [drawing 132], the inhibition in vivo at 0.3 mg/kg is 24.3 ± 2.3%.

Staying with this experiment, now noted: Rattus norvegicus, iv, 0.5 h; 0.5 mg/kg intravenously; A II 20 ng/kg/min; 30 min; read-out: Inhibition (%), after 30 min.
Take `O=C(O)Cc1c(Cl)nc(-c2ccc(O)cc2)n1Cc1ccccc1` [drawing 132]: the inhibition in vivo at 0.5 mg/kg worked out at 36 ± 3%. The same measure, in the same setting: as for `Nc1ccc(-c2nc(Cl)c(CC(=O)O)n2Cc2ccccc2)cc1` [drawing 133], the figure is 45.3 ± 2.4%.

The experiment is the same for the next values; noted with them: Rattus norvegicus, iv, 0.5 h; 1.0 mg/kg intravenously; A II 20 ng/kg/min; 30 min; read-out: Inhibition (%), after 30 min.
Take `O=C(O)Cc1c(Cl)nc(-c2ccccc2)n1Cc1ccccc1Cl` [drawing 134]: the inhibition in vivo at 1 mg/kg amounted to 36.5 ± 4.5%.

The experiment is the same for the next values; noted with them: Rattus norvegicus, iv, 1.5 h; 0.3 mg/kg intravenously; A II 20 ng/kg/min; 90 min; read-out: Inhibition (%), after 90 min.
With `O=C(O)Cc1c(Cl)nc(-c2ccc(O)cc2)n1Cc1ccccc1` [drawing 132], the inhibition in vivo at 0.3 mg/kg was found to be 11.7 ± 6%.

The experiment is the same for the next values; noted with them: Rattus norvegicus, iv, 1.5 h; 0.5 mg/kg intravenously; A II 20 ng/kg/min; 90 min; read-out: Inhibition (%), after 90 min.
With `O=C(O)Cc1c(Cl)nc(-c2ccc(O)cc2)n1Cc1ccccc1` [drawing 132], the inhibition in vivo at 0.5 mg/kg was found to be 35 ± 3.9%. The same measure, in the same setting: the value for `Nc1ccc(-c2nc(Cl)c(CC(=O)O)n2Cc2ccccc2)cc1` [drawing 133] was 37 ± 8.6%.

Staying with this experiment, now noted: Rattus norvegicus, iv, 1.5 h; 1.0 mg/kg intravenously; A II 20 ng/kg/min; 90 min; read-out: Inhibition (%), after 90 min.
On to `O=C(O)Cc1c(Cl)nc(-c2ccccc2)n1Cc1ccccc1Cl` [drawing 134], for which the inhibition in vivo at 1 mg/kg worked out at 32.3 ± 7%.
